Measurements: PubChem BioAssay AID1963834 (Molecular Pharmacology Branch, DTP, NCI, 2024)
pIC50: −log10 of the molar value.

Test system: 873145-292-R-J1-PDC complex spheroid viability
Assay: Anticancer human tumor 873145-292-R-J1-PDC patient-derived renal clear cell carcinoma cell line growth inhibition [POLQ]
Details: for pIC50: curve of first compound; for viability, T/C: stronger effect = lower value
Method in brief: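 PDC + HUVEC + MSC complex spheroids; POLQ inhibitors ± partner drugs; top conc. at/near clinical Cmax, else 10 microM (SN-38 1 microM), half-log dilutions; 37 degrees C, 5% CO2.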

[1] = second compound 0.0316 µM, first compound 0.0316 µM
[2] = second compound 0.0316 µM, first compound 0.1 µM
[3] = second compound 0.1 µM, first compound 0.0316 µM
[4] = second compound 0.1 µM, first compound 0.1 µM
[5] = second compound 0.316 µM, first compound 0.0316 µM
[6] = second compound 0.316 µM, first compound 0.1 µM
[7] = second compound 1 µM, first compound 0.0316 µM
[8] = second compound 1 µM, first compound 0.1 µM
[9] = second compound 3.16 µM, first compound 0.0316 µM
[10] = second compound 3.16 µM, first compound 0.1 µM
[11] = second compound 10 µM, first compound 0.0316 µM
[12] = second compound 10 µM, first compound 0.1 µM
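Also: spheroids exposed to compounds for 7 days before viability readout.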
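For viability, T/C in this document: luminescence signal used as surrogate for viable cell content; 100% = DMSO vehicle control viability.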

CC[C@@]1(O)C(=O)OCc2c1cc1n(c2=O)Cc2cc3c(CN(C)C)c(O)ccc3nc2-1 + Nc1ccc(C#CCN(C(=O)Cc2ncc(C(F)(F)F)cc2C(F)(F)F)c2ccc(F)cc2)nn1 showed a pIC50 (second compound 0.0316 µM) of under 7.00, a pIC50 (second compound 0.1 µM) of under 7.00 and a pIC50 (second compound 0.316 µM) of under 7.00. It also gave a pIC50 (second compound 1 µM) of under 7.00, a pIC50 (second compound 3.16 µM) of under 7.00 and a pIC50 (second compound 10 µM) of under 7.00. The viability, T/C (second compound 0.0316 µM, first compound 0.000316 µM) was 109%, the viability, T/C (second compound 0.0316 µM, first compound 0.001 µM) was 116% and the viability, T/C (second compound 0.0316 µM, first compound 0.00316 µM) was 96.9%. For the same compound, the viability, T/C (second compound 0.0316 µM, first compound 0.01 µM) was 92%, the viability, T/C [1] was 95.8% and the viability, T/C [2] was 56.4%. For the same compound, the viability, T/C (second compound 0.1 µM, first compound 0.000316 µM) was 112%, the viability, T/C (second compound 0.1 µM, first compound 0.001 µM) was 107% and the viability, T/C (second compound 0.1 µM, first compound 0.00316 µM) was 107%. The viability, T/C (second compound 0.1 µM, first compound 0.01 µM) was 107%, the viability, T/C [3] was 99.3% and the viability, T/C [4] was 52.7%. It also gave a viability, T/C (second compound 0.316 µM, first compound 0.000316 µM) of 104%, a viability, T/C (second compound 0.316 µM, first compound 0.001 µM) of 105% and a viability, T/C (second compound 0.316 µM, first compound 0.00316 µM) of 92%. The viability, T/C (second compound 0.316 µM, first compound 0.01 µM) was 111%, the viability, T/C [5] was 95.5% and the viability, T/C [6] was 53.4%. The viability, T/C (second compound 1 µM, first compound 0.000316 µM) was 115%, the viability, T/C (second compound 1 µM, first compound 0.001 µM) was 99.2% and the viability, T/C (second compound 1 µM, first compound 0.00316 µM) was 98.6%. For the same compound, the viability, T/C (second compound 1 µM, first compound 0.01 µM) was 91%, the viability, T/C [7] was 106% and the viability, T/C [8] was 59.6%. It also gave a viability, T/C (second compound 3.16 µM, first compound 0.000316 µM) of 114%, a viability, T/C (second compound 3.16 µM, first compound 0.001 µM) of 112% and a viability, T/C (second compound 3.16 µM, first compound 0.00316 µM) of 112%. For the same compound, the viability, T/C (second compound 3.16 µM, first compound 0.01 µM) was 102%, the viability, T/C [9] was 93.5% and the viability, T/C [10] was 63.9%. It also gave a viability, T/C (second compound 10 µM, first compound 0.000316 µM) of 109%, a viability, T/C (second compound 10 µM, first compound 0.001 µM) of 111% and a viability, T/C (second compound 10 µM, first compound 0.00316 µM) of 124%. For the same compound, the viability, T/C (second compound 10 µM, first compound 0.01 µM) was 119%, the viability, T/C [11] was 103% and the viability, T/C [12] was 63.2%.

COc1cccc2c1C(=O)c1c(O)c3c(c(O)c1C2=O)CC(O)(C(=O)CO)CC3OC1CC(N)C(O)C(C)O1 (centres undefined) + Nc1ccc(C#CCN(C(=O)Cc2ncc(C(F)(F)F)cc2C(F)(F)F)c2ccc(F)cc2)nn1 gave a pIC50 (second compound 0.0316 µM) of 5.80, a pIC50 (second compound 0.1 µM) of 5.79 and a pIC50 (second compound 0.316 µM) of 5.79. It also gave a pIC50 (second compound 1 µM) of 5.78, a pIC50 (second compound 3.16 µM) of 5.90 and a pIC50 (second compound 10 µM) of 6.06. It also gave a viability, T/C [1] of 100%, a viability, T/C [2] of 86.6% and a viability, T/C (second compound 0.0316 µM, first compound 0.316 µM) of 95.9%. For the same compound, the viability, T/C (second compound 0.0316 µM, first compound 1 µM) was 81.7%, the viability, T/C (second compound 0.0316 µM, first compound 3.16 µM) was 3.57% and the viability, T/C (second compound 0.0316 µM, first compound 10 µM) was 1.97%. For the same compound, the viability, T/C [3] was 113%, the viability, T/C [4] was 93.3% and the viability, T/C (second compound 0.1 µM, first compound 0.316 µM) was 85.1%. The viability, T/C (second compound 0.1 µM, first compound 1 µM) was 84.7%, the viability, T/C (second compound 0.1 µM, first compound 3.16 µM) was 3.75% and the viability, T/C (second compound 0.1 µM, first compound 10 µM) was 2.69%. For the same compound, the viability, T/C [5] was 98.9%, the viability, T/C [6] was 91.9% and the viability, T/C (second compound 0.316 µM, first compound 0.316 µM) was 84.3%. For the same compound, the viability, T/C (second compound 0.316 µM, first compound 1 µM) was 83%, the viability, T/C (second compound 0.316 µM, first compound 3.16 µM) was 4.08% and the viability, T/C (second compound 0.316 µM, first compound 10 µM) was 2.88%. It also gave a viability, T/C [7] of 99.1%, a viability, T/C [8] of 85.7% and a viability, T/C (second compound 1 µM, first compound 0.316 µM) of 84.5%. It also gave a viability, T/C (second compound 1 µM, first compound 1 µM) of 86.2%, a viability, T/C (second compound 1 µM, first compound 3.16 µM) of 3.81% and a viability, T/C (second compound 1 µM, first compound 10 µM) of 3.33%. The viability, T/C [9] was 92.4%, the viability, T/C [10] was 93.9% and the viability, T/C (second compound 3.16 µM, first compound 0.316 µM) was 99%. For the same compound, the viability, T/C (second compound 3.16 µM, first compound 1 µM) was 61.4%, the viability, T/C (second compound 3.16 µM, first compound 3.16 µM) was 1.38% and the viability, T/C (second compound 3.16 µM, first compound 10 µM) was 2.89%. It also gave a viability, T/C [11] of 106%, a viability, T/C [12] of 97.5% and a viability, T/C (second compound 10 µM, first compound 0.316 µM) of 111%. It also gave a viability, T/C (second compound 10 µM, first compound 1 µM) of 42.9%, a viability, T/C (second compound 10 µM, first compound 3.16 µM) of 1.14% and a viability, T/C (second compound 10 µM, first compound 10 µM) of 2.84%.
